Measured values taken from PubChem BioAssay (NCI).
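Values below derive from 48-hour exposures of cells grown in 96-well plates, with endpoints linearly interpolated between the two concentrations bracketing the appropriate inhibition level. The concentration for full growth arrest is given as TGI.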

Tests used:
Experiment in all cases: NCI tumour cell line growth inhibition, 48 h
RXF 393 renal = tested on: RXF 393 renal
HOP-62 NSCLC = tested on: HOP-62 NSCLC
OVCAR-4 ovarian = tested on: OVCAR-4 ovarian
SN12C renal = tested on: SN12C renal
SW-620 colon = tested on: SW-620 colon
HCT-15 colon = tested on: HCT-15 colon
T-47D breast = tested on: T-47D breast
NCI-H226 lung = tested on: NCI-H226 lung
MALME-3M melanoma = tested on: MALME-3M melanoma
LOX IMVI melanoma = tested on: LOX IMVI melanoma

SMILES | TGI (RXF 393 renal) | TGI (HOP-62 NSCLC) | TGI (OVCAR-4 ovarian) | TGI (SN12C renal) | TGI (SW-620 colon) | TGI (HCT-15 colon) | TGI (T-47D breast) | TGI (NCI-H226 lung) | TGI (MALME-3M melanoma) | TGI (LOX IMVI melanoma)
CC1CC[C@@]2(OC1)OC1C[C@H]3[C@@H]4C/C(=N\N(C)C)[C@@]5(O)CC(O)CC[C@]5(C)[C@H]4CC[C@]3(C)C1[C@@H]2C (some centres undefined) | 61.2 µM | > 100 µM | > 100 µM | > 100 µM | > 100 µM | > 100 µM | > 100 µM | > 100 µM | 83.7 µM | > 100 µM
O=c1[nH]c(=O)n(C2CC(O)C(CO)O2)cc1OCCCc1ccccc1 (centres undefined) | > 100 µM | > 100 µM | > 100 µM | > 100 µM | – | > 100 µM | > 100 µM | > 100 µM | > 100 µM | > 100 µM
Cc1cccc2c1Oc1ccccc1C2NC(=O)c1ccc([N+](=O)[O-])cc1 (centres undefined) | 89.2 µM | > 100 µM | > 100 µM | 91 µM | > 100 µM | > 100 µM | > 100 µM | 63.9 µM | > 100 µM | > 100 µM
Cn1c(=O)cc(NCc2ccc(Cl)cc2)[nH]c1=O | > 100 µM | 77.4 µM | > 100 µM | > 100 µM | > 100 µM | > 100 µM | > 100 µM | > 100 µM | > 100 µM | > 100 µM
COc1cc(-c2oc3c(OC)c(O)c(OC)c(O)c3c(=O)c2OC)cc(O)c1OC | 79.4 µM | > 100 µM | > 100 µM | > 100 µM | > 100 µM | > 100 µM | > 100 µM | > 100 µM | 99.4 µM | > 100 µM
O=C/C(=C(/Br)I)c1ccccc1 | 7.2 µM | 29.8 µM | 10.6 µM | 3.64 µM | 2.75 µM | 5.65 µM | 3.85 µM | 26 µM | 5.87 µM | 10.9 µM
COc1ccc(/C=C2\C[C@H]3[C@@H]4CCC5=C[C@@H](N6CCCC6)CC[C@]5(C)[C@H]4CC[C@]3(C)[C@H]2O)cc1 | 3.29 µM | 3.74 µM | 13.9 µM | 12.3 µM | – | 5.77 µM | 14.1 µM | 10.9 µM | 5.87 µM | 3.61 µM
CC(C)(C)N(Cc1ccc2c(c1)OCO2)C(=O)/C=C\S(=O)c1ccccc1 (centres undefined) | 8.22 µM | 17.7 µM | 10.7 µM | 9.03 µM | 17.5 µM | 13.2 µM | 14.3 µM | 11.2 µM | 13.9 µM | 7.51 µM
CC1(c2nc3cc(Cl)c(Cl)cc3[nH]2)CCC(CO)C(C)(C)O1 (centres undefined) | > 100 µM | > 100 µM | > 100 µM | > 100 µM | > 100 µM | > 100 µM | > 100 µM | 56.6 µM | 84 µM | > 100 µM
O=C1CN2Cc3cc(N4CCOCC4)ccc3N=C2N1 | > 100 µM | > 100 µM | > 100 µM | > 100 µM | > 100 µM | > 100 µM | > 100 µM | > 100 µM | > 100 µM | > 100 µM
CC1=C2C(=O)[C@H]3[C@@H](CC=C4C[C@@H](O)CC[C@@]43C)[C@@H]2CC[C@]12O[C@@H]1C[C@H](C)CN[C@H]1[C@H]2C | > 53 µM | > 55.2 µM | > 64.5 µM | > 60.6 µM | > 79.9 µM | > 81.3 µM | > 100 µM | > 61 µM | > 79.3 µM | > 58.2 µM
COc1ccc(N=C(C)c2ccncc2)cc1 | > 100 µM | > 100 µM | > 100 µM | > 100 µM | > 100 µM | > 100 µM | > 100 µM | > 100 µM | > 100 µM | > 100 µM
COc1ccc2nc3cccc([N+](=O)[O-])c3c(NCCO)c2c1 | 0.0274 µM | 0.0668 µM | 0.153 µM | 0.0792 µM | 0.00862 µM | 0.0481 µM | 0.805 µM | 0.176 µM | 0.0337 µM | 0.00494 µM
O=[N+]([O-])c1cccc2nc3ccccc3c(NCCc3cccc[n+]3[O-])c12 | 0.11 µM | 0.245 µM | 0.212 µM | 0.28 µM | 0.197 µM | 0.0639 µM | 0.852 µM | 0.562 µM | < 0.034 µM | 0.121 µM
CN1C2CC(=O)CC1[C@H](O)[C@@H]2O | > 100 µM | > 100 µM | – | > 100 µM | > 100 µM | > 100 µM | > 100 µM | > 100 µM | > 100 µM | > 100 µM
CCOC(=O)c1csc(NC(=O)CCN2CCCCC2)n1 | > 100 µM | > 100 µM | > 100 µM | – | > 100 µM | > 100 µM | > 100 µM | – | > 100 µM | > 100 µM
CC(C)(C)c1ccc(-c2nc3ccc([N+](=O)[O-])cc3c(=O)o2)cc1 | 96.7 µM | 60.9 µM | 75.2 µM | > 100 µM | > 100 µM | 73.4 µM | > 100 µM | – | 75 µM | 29.9 µM
